# From US20150272874A1, “PULMONARY DISEASE-SPECIFIC THERAPEUTIC AGENT” (CARDIO INCORPORATED, priority 2012, published 2015)
# “And” between values parts separate entries of the source, which are not always exact repeats. Equal entries are not always repeated. Structures can show the parent of a compound that is named as a salt.
# How the values were obtained:
# [1] = system: MCT-induced mild pulmonary hypertension model; conditions: mild disease model; Am J Respir Crit Care Med 169: 34-38-2004; cited from earlier work
# [2] = system: monocrotaline (MCT) pulmonary hypertension models; assay: Pharmacological Effect Test 5: combined effect of ozagrel hydrochloride with Compounds 3 and 7, survival; type: in vivo, Slc;Wistar female rats; conditions: oral twice a day until Day 42; Compound 3 or 7 0.1 mg/kg, ozagrel hydrochloride 100 mg/kg, alone or combined
# Experimental: After Slc;Wistar female rats (5 weeks old) were anesthetized with inhaled isoflurane, an aqueous monocrotaline (MCT) solution was subcutaneously administered into the dorsal region of each rat at a dose of 60 mg/kg (an injection volume of 3 mL/Kg) using a disposable syringe and a 27G disposable injection needle to prepare pulmonary hypertension models.
# From immediately after the MCT administration until Day 42, test substances were repeatedly administered orally twice a day as shown in the following table.
# The test substances were suspended in 0.5% aqueous CMC-Na solutions, and the aqueous solutions were orally administered repeatedly at a dose of 5 mL/kg.
# [3] = Maximum tolerated oral dose without blood-pressure-lowering effect; type: in vivo
# [4] = cited from earlier work
# [5] = system: Normal human newborn foreskin dermal fibroblasts (Fibrocell NHDF (NB)); assay: Pharmacological Effect Test 6: production of cytokines (ELISA) and PGs (EIA); type: cell-based; conditions: 1 μM, 72 hours, n=3, M ± S.E.
# Experimental: Normal human newborn foreskin dermal fibroblasts (Fibrocell NHDF (NB)) provided from Kurabo Industries, Ltd., were cultured to confluency at […] (DMEM 10% FBS). Twenty-four hours after replacing the medium with (serum-free) DMEM, the medium was replaced with DMEM (0.2% FBS), and Compound 1 (1 μM) and a solvent (DMSO) was added. The cells were cultured for 72 hours (n=3).
# Cytokines in the culture were measured by ELISA, and prostaglandins were measured by EIA.
# PGI2 was measured by using a degradation product of PGI2 (6-keto-PGF1α).
# [6] = Pharmacological Effect Test 3: Compound 1 content of the lungs (LC/MS/MS); type: in vivo, Slc;Wistar male rats; conditions: for Concentration of Compound 1 in the tissue: lung, individual animals, 1 mg/kg
# Experimental: Further, the Compound 1 contents of the lungs in Groups 3 and 4 were measured.
# A four-fold amount of a mixture of distilled water and ethanol relative to the lung weight was added to form a homogenate. Acetonitrile was added to a part of the homogenate and the resulting mixture was stirred. The centrifuged supernatant was collected and concentrated. After the concentrate was dissolved in a solvent, LC/MS/MS measurement was performed under the same conditions as in Preparation Test Example 2 to determine Compound 1 content of the lungs.
# [7] = system: blood TXA2 concentration; conditions: MCT rat models; Am J Respir Crit Care Med 172, 1575-1580 (2005); cited from earlier work
# [8] = cited from earlier work; remark: listed apart in the source
# [9] = target: T1, TXA2 synthetase (Rattus norvegicus, UniProt P49430); assay: Dose completely inhibiting TXA2 synthetase; type: in vivo; conditions: oral dose
# T1 construct: endogenous in cells; host or cells: Whole animal dosed in vivo (rat inferred)
# T1 sequence (P49430 1-533): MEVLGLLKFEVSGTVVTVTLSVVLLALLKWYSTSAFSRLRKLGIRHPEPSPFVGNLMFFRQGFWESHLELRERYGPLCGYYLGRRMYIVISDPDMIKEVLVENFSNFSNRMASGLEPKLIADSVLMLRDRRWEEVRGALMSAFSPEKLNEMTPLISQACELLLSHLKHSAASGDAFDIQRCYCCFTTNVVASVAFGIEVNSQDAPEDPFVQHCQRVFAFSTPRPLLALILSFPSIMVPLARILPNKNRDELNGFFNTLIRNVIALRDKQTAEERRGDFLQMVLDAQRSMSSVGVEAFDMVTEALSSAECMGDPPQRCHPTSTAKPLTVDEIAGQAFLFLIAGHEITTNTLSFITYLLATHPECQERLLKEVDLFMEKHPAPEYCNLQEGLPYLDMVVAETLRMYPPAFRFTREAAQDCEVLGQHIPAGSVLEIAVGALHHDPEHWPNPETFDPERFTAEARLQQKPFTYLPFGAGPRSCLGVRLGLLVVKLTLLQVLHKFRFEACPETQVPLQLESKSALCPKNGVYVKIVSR
structure (smiles),measurement,setting,value
"CC#CC[C@@H](C)[C@H](O)/C=C/[C@@H]1[C@H]2c3cccc(CCCC(=O)[O-])c3O[C@H]2C[C@H]1O.[Na+] (racemic) [Compound 3, sodium (±)-(1R,2R,3aS,8bS)-2,3,3a,8b-tetrahydro-2-hydroxy-1-[(E)-(3S,4RS)-3-hydroxy-4-methyl-1-octen-6-ynyl]-1H-cyclopenta[b]benzofuran-5-butanoate]",combined effect with a PDEV inhibitor (sildenafil),[1],synergistic effect
same,efficacy administered alone,[1],efficacious
same,survival rate vs medium-administered group,[2],no survival prolongation effect
same,MTD,"[3]; Slc:Wistar, rat, in vivo, read-out: maximum tolerated dose that does not show blood-pressure-lowering effect",0.1 mg/kg
same,long-term effects,[4]; after 1 year,no significant difference
same,exercise tolerance,[4]; relatively short-term (after 12 weeks),improved
"O=C(O)COc1cccc2c1CCC=C2CCO/N=C(\c1ccccc1)c1cccnc1 [Compound 1, (E)-[5-[2-[1-phenyl-1-(3-pyridyl)methylideneaminooxy]ethyl]-7,8-dihydronaphthalen-1-yloxy]acetic acid]",6-keto-PGF1α (PGI2),[5],44.5 ± 4.014 pg/mL
same,G-CSF,[5],28.71 ± 6.110 pg/mL
same,HGF,[5],102.60 ± 15.658 pg/mL
same,HMGB1,[5],1.480 ± 0.147 ng/mL
same,PGE2,[5],38.1 ± 6.392
same,SDF-1α,[5],2457.46 ± 231.884 pg/mL
same,VEGF,[5],38.44 ± 11.857 pg/mL
same,average concentration in lung tissue,[6]; Group 3: Preparation Example 1 single i.v. 1 mg/kg,76.35 ng/g
same,average concentration in lung tissue,[6]; Group 4: Preparation Example 1 single s.c. 1 mg/kg,0.659 ng/g
same,"concentration in lung tissue, intravenous compared to subcutaneous injection",[6]; i.v. 1 mg/kg vs s.c. 1 mg/kg,about 120 fold
same,"ratio of Group 3 to Group 4, concentration in lung tissue",[6]; i.v. 1 mg/kg vs s.c. 1 mg/kg,115.9
same,Concentration of Compound 1 in the tissue,[6]; Group 3 (1 mg/kg) of Preparation Example 1,50.0 ng/g and 99.2 ng/g and 45.2 ng/g and 111 ng/g
same,Concentration of Compound 1 in the tissue,"[6]; Group 4 (1 mg/kg) as printed, Preparation Example 1",1.06 ng/g and 0.258 ng/g
same,blood TXA2 concentration,[7],inhibits an increase
"CCCC[C@H](C)C[C@H](O)/C=C/[C@H]1[C@H](O)CC(=O)[C@@H]1CC(=O)CCCCC(=O)OC [Compound 7, 17S,20-dimethyl-6-oxo-prostaglandin E1 methyl ester]",survival rate vs medium-administered group,[2],no survival prolongation effect
same,maximum tolerated dose that does not show blood-pressure-lowering effect,[3],0.1 mg/kg
"CCCCC[C@H](O)/C=C/[C@@H]1[C@H]2C/C(=C/CCCC(=O)O)O[C@H]2C[C@H]1O [Epoprostenol sodium, reference compound]",blood TXA2 concentration,[7],further increases
same,half-life,[8],about 6 minutes
O=C(O)/C=C/c1ccc(Cn2ccnc2)cc1 [ozagrel hydrochloride],survival rate vs medium-administered group,[2],no survival prolongation effect
same,amount that completely inhibits the TXA2 synthetase,[9],100 mg/kg
